From ChEMBL document CHEMBL5518227, “Discovery of JNJ-1802, a First-in-Class Pan-Serotype Dengue Virus NS4B Inhibitor” (J Med Chem, 2024)

Columns and labels:
[1] = Clearance in Sprague-Dawley rat assessed as liver blood flow at 2.5 mg/kg, iv measured after 24 hrs by LC-MS/MS analysis; assay type: ADME, organism-based; details: in vivo
[2] = target: Cytochrome P450 3A4 (Homo sapiens, UniProt P08684); assay: Inhibition of human CYP3A4 preincubated for 5 mins followed by NADPH addition measured after 5 to 30 mins by LC-MS analysis; assay type: ADME; details: time 10-35 min
Chain of Cytochrome P450 3A4 (P08684 whole entry): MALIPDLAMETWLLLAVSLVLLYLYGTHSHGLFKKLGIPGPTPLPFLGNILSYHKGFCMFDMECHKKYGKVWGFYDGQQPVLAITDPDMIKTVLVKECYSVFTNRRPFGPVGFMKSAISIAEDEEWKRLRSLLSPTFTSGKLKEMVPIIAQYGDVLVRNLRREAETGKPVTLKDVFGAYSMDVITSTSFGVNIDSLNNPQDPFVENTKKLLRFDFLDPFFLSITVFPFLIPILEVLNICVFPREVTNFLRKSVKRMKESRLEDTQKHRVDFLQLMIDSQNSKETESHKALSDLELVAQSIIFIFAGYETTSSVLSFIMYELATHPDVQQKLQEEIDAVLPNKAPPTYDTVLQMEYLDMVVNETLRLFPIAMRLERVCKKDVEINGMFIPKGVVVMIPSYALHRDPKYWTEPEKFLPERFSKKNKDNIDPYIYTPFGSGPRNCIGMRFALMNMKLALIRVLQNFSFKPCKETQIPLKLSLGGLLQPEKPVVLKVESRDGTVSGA

[3] = target: Voltage-gated inwardly rectifying potassium channel KCNH2 (Homo sapiens, UniProt Q12809); assay: Inhibition of human ERG stably expressed in CHO cells by automated Qpatch electrophysiological assay; assay type: toxicity, cell-based
Chain of Voltage-gated inwardly rectifying potassium channel KCNH2 (Q12809 whole entry): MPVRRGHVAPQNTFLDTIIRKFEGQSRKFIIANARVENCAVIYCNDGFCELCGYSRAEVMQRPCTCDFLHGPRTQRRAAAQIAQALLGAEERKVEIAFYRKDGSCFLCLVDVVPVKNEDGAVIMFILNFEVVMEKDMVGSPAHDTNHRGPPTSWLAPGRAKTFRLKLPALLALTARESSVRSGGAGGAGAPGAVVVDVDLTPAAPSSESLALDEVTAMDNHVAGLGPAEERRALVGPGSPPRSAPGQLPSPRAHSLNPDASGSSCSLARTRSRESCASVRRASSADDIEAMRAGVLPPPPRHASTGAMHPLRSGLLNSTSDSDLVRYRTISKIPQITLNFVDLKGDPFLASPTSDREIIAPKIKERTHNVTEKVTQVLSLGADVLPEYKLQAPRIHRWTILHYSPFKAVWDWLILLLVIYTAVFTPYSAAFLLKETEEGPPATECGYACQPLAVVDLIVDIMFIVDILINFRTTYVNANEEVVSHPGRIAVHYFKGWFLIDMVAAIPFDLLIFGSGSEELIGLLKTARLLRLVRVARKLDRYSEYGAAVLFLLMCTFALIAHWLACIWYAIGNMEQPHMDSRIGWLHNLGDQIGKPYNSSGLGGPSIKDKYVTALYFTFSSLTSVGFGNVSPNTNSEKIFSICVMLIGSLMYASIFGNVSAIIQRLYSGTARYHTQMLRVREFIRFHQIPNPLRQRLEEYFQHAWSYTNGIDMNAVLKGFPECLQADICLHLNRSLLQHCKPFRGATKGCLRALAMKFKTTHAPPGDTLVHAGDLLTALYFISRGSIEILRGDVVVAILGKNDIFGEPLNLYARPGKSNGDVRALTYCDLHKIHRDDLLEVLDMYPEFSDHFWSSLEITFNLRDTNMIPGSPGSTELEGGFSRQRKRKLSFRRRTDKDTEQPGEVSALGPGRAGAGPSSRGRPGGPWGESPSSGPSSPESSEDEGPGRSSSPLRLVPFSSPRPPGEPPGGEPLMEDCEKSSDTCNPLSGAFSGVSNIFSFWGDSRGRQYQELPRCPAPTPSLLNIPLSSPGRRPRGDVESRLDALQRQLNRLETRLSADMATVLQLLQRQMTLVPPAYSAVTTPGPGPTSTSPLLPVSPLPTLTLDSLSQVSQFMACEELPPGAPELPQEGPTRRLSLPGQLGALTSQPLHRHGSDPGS

[4] = Cmax in 8 hrs fasted cynomolgus monkey assessed as liver blood flow at 3 mg/kg, po measured upto 24 hrs by LC-MS/MS analysis; assay type: ADME, organism-based, Macaca fascicularis; details: in vivo
[5] = Cmax in CD-1 mouse at 10 mg/kg, po measured upto 24 hrs by LC-MS/MS analysis; assay type: ADME, organism-based; details: in vivo
[6] = Clearance in CD-1 mouse at 2.5 mg/kg, iv measured upto 24 hrs by LC-MS/MS analysis; assay type: ADME, organism-based; details: in vivo
[7] = Volume of distribution at steady state in CD-1 mouse at 2.5 mg/kg, iv measured upto 24 hrs by LC-MS/MS analysis; assay type: ADME, organism-based; details: in vivo, read-out: Vdss
[8] = AUC in overnight fasted Beagle dog at 2.37 mg/kg, po measured upto 24 hrs by LC-MS/MS analysis; assay type: ADME, organism-based, Canis lupus familiaris; details: in vivo
[9] = Clearance in overnight fasted Beagle dog at 0.51 mg/kg, iv measured upto 24 hrs by LC-MS/MS analysis; assay type: ADME, organism-based, Canis lupus familiaris; details: in vivo
[10] = Mutagenicity in Salmonella typhimurium TA7005 in presence or absence of S9 fraction pretreated for 90 mins measured after 48 hrs in dark by AMES test; assay type: toxicity; details: salmonella enterica subsp. enterica serovar typhimurium, s9, 49.5 h; time 2970 min
[11] = Elimination half life in 8 hrs fasted cynomolgus monkey assessed as liver blood flow at 1 mg/kg, iv measured upto 24 hrs by LC-MS/MS analysis; assay type: ADME, organism-based, Macaca fascicularis; details: in vivo, read-out: beta t1/2 (converted)
[12] = Metabolic stability in human liver microsomes assessed as intrinsic clearance preincubated for 5 mins followed by NADPH addition measured upto 60 mins by LC-MS/MS analysis; assay type: ADME, Microsome; details: time < 65 min, read-out: CLH
[13] = target: Cytochrome P450 2C9 (Homo sapiens, UniProt P11712); assay: Inhibition of human CYP2C9 preincubated for 5 mins followed by NADPH addition measured after 5 to 30 mins by LC-MS analysis; assay type: ADME
Chain of Cytochrome P450 2C9 (P11712 whole entry): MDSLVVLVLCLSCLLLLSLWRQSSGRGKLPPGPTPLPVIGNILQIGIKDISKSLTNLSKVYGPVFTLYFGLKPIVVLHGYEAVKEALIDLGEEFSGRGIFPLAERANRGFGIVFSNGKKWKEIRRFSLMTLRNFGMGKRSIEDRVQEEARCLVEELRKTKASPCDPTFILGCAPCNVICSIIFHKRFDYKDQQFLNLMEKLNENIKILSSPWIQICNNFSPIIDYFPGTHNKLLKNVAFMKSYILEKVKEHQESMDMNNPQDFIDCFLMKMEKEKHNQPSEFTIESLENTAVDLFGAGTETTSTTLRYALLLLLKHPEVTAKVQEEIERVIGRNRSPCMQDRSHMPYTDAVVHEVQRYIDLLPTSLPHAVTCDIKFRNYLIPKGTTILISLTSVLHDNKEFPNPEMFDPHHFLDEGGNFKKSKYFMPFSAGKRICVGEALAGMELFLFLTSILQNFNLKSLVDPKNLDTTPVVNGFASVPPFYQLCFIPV

[14] = system: dengue virus type 4; assay: Antiviral activity against DENV-4 H241 infected in african green monkey Vero cells incubated for 24 hrs measured after 3 days post infection by RT-PCR analysis; assay type: functional, organism-based
[15] = system: dengue virus type 3; assay: Antiviral activity against DENV-3 H87 infected in african green monkey Vero cells incubated for 24 hrs measured after 3 days post infection by RT-PCR analysis; assay type: functional, organism-based; details: Dengue virus, H87, Vero; read-out: EC50
[16] = system: dengue virus type 2; assay: In vivo antiviral activity against DENV-2/RL infected in AG129 mouse assessed as increase in efficacy administered as po bid for 3 days; assay type: functional, organism-based; details: dose 0.2-60 mg/kg/day, time 3.0 day
[17] = AUC in CD-1 mouse at 10 mg/kg, po measured upto 24 hrs by LC-MS/MS analysis; assay type: ADME, organism-based; details: in vivo
[18] = Clearance in overnight fasted Beagle dog assessed as liver blood flow at 0.51 mg/kg, iv measured upto 24 hrs by LC-MS/MS analysis; assay type: ADME, organism-based, Canis lupus familiaris; details: in vivo
[19] = Volume of distribution at steady state in overnight fasted Beagle dog at 0.51 mg/kg, iv measured upto 24 hrs by LC-MS/MS analysis; assay type: ADME, organism-based, Canis lupus familiaris; details: in vivo, read-out: Vdss
[20] = Cmax in Sprague-Dawley rat at 10 mg/kg, po measured after 24 to 48 hrs by LC-MS/MS analysis; assay type: ADME, organism-based; details: in vivo, time 24-48 hrs
[21] = Volume of distribution at steady state in 8 hrs fasted cynomolgus monkey […] at 1 mg/kg, iv measured upto 24 hrs by LC-MS/MS analysis; assay type: ADME, organism-based, Macaca fascicularis; details: in vivo, read-out: Vdss
[22] = Oral bioavailability in Sprague-Dawley rat at 10 mg/kg measured after 24 to 48 hrs by LC-MS/MS analysis; assay type: ADME, organism-based; details: in vivo, time 24-48 hrs
[23] = Metabolic stability in dog hepatocytes assessed as intrinsic clearance measured per million cells incubated upto 120 mins by LC-MS/MS analysis; assay type: ADME, cell-based, Canis lupus familiaris, Hepatocyte; details: read-out: CLH
[24] = target: Cytochrome P450 2D6 (Homo sapiens, UniProt P10635); assay: Inhibition of human CYP2D6 preincubated for 5 mins followed by NADPH addition measured after 5 to 30 mins by LC-MS analysis; assay type: ADME
Chain of Cytochrome P450 2D6 (P10635 whole entry): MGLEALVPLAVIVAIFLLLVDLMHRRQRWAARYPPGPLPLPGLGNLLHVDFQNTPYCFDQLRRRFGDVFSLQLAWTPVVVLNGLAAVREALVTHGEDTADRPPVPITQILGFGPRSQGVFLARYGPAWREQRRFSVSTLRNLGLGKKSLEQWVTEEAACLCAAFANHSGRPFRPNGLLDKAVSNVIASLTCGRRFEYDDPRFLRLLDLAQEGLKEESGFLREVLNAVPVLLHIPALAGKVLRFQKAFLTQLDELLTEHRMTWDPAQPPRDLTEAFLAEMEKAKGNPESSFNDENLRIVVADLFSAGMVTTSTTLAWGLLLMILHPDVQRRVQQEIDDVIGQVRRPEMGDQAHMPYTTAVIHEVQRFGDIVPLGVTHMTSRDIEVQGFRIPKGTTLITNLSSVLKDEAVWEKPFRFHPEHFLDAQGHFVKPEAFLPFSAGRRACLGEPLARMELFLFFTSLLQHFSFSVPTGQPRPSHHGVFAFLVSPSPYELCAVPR

[25] = target: Cytochrome P450 3A5 (Homo sapiens, UniProt P20815); assay: Inhibition of human CYP3A5 preincubated for 5 mins followed by NADPH addition measured after 5 to 30 mins by LC-MS analysis; assay type: ADME; details: time 10-35 min
Chain of Cytochrome P450 3A5 (P20815 whole entry): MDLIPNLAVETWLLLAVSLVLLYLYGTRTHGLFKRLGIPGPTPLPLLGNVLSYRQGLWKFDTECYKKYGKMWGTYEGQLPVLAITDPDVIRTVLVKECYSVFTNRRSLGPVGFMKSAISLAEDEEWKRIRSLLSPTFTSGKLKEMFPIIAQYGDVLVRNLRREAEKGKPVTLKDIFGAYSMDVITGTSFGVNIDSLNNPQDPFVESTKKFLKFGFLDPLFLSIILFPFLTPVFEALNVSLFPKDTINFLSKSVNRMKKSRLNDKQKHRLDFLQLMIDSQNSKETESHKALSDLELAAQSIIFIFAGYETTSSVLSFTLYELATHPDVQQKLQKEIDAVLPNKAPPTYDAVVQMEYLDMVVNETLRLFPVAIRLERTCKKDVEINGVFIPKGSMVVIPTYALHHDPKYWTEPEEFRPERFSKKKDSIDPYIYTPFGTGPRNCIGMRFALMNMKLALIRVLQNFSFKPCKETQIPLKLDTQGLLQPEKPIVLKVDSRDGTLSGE

[26] = Mutagenicity in Salmonella typhimurium TA7003 in presence or absence of S9 fraction pretreated for 90 mins measured after 48 hrs in dark by AMES test; assay type: toxicity; details: salmonella enterica subsp. enterica serovar typhimurium, s9, 49.5 h; time 2970 min
[27] = Metabolic stability in rat hepatocytes assessed as intrinsic clearance measured per million cells incubated upto 120 mins by LC-MS/MS analysis; assay type: ADME, cell-based, Hepatocyte; details: read-out: CLH
[28] = Elimination half life in CD-1 mouse at 2.5 mg/kg, iv measured upto 24 hrs by LC-MS/MS analysis; assay type: ADME, organism-based; details: in vivo, read-out: beta t1/2 (converted)
[29] = Metabolic stability in cynomolgus monkey hepatocytes assessed as intrinsic clearance measured per million cells incubated upto 120 mins by LC-MS/MS analysis; assay type: ADME, cell-based, Macaca fascicularis, Hepatocyte; details: read-out: CLH
[30] = Clearance in CD-1 mouse assessed as liver blood flow at 2.5 mg/kg, iv measured upto 24 hrs by LC-MS/MS analysis; assay type: ADME, organism-based; details: in vivo
[31] = Thermodynamic solubility of the compound in aqueous buffer at pH 7.4 measured after 24 hrs by UPLC analysis; assay type: physicochemical; details: read-out: Therm_solubility

Question: Which results are given for `COc1cc(N[C@H](C(=O)c2c[nH]c3ccc(OC(F)(F)F)cc23)c2ccc(Cl)cc2OC)cc(S(C)(=O)=O)c1` [MOSNODENVIR]?
Answer: LBF [1]: 7%; inhibition (INH) [2]: Not Active; IC50 [3]: > 30000 nM; Cmax [4]: 613 ng/mL; Cmax [5]: 2730 ng/mL; clearance [6]: 4.97 mL/min/kg; Vd [7]: 2.5 L/kg; AUC at 24 h [8]: 2940 ng·h/mL; clearance [9]: 6.4 mL/min/kg; Activity [10]: Non-Toxic; half-life [11]: 9.57 h; microsomal CLint [12]: < 8 µL/min/mg; IC50 [13]: 3700 nM; EC50 [14]: 11 nM; EC50 [15]: 2 nM; Activity [16]: Dose-Dependent Effect; AUC at 24 h [17]: 35600 ng·h/mL; LBF [18]: 21%; Vd [19]: 3.1 L/kg; Cmax [20]: 629 ng/mL; Vd [21]: 1.64 L/kg; bioavailability [22]: 58%; hepatocyte CLint [23]: 5.7 µL/min/1e6 cells; IC50 [24]: > 30000 nM; inhibition (INH) [25]: Not Active; Activity [26]: Non-Toxic; hepatocyte CLint [27]: < 1.9 µL/min/1e6 cells; half-life [28]: 6.2 h; hepatocyte CLint [29]: < 1.9 µL/min/1e6 cells; LBF [30]: 4%; solubility thermodynamic at 24 h [31]: < 1 µg/mL
